# Assay results from ChEMBL document CHEMBL5038615, “Discovery of a cinnamyl piperidine derivative as new neddylation inhibitor for gastric cancer treatment” (Eur J Med Chem, 2021).
# Key:
# HepG2 = assay: Antiproliferative activity against human HepG2 cells assessed as inhibition of cell proliferation measured after 72 hrs by MTT assay; format: functional, cell-based; conditions: HepG2, 72 h
# A549 = assay: Antiproliferative activity against human A549 cells assessed as inhibition of cell proliferation measured after 72 hrs by MTT assay; format: functional, cell-based; conditions: A549, 72 h
# MCF7 = assay: Antiproliferative activity against human MCF7 cells assessed as inhibition of cell proliferation measured after 72 hrs by MTT assay; format: functional, cell-based; conditions: MCF7, 72 h
# MGC-803 = assay: Antiproliferative activity against human MGC-803 cells assessed as inhibition of cell proliferation measured after 72 hrs by MTT assay; format: functional, cell-based; conditions: MGC-803, 72 h
# HGC-27 = assay: Antiproliferative activity against human HGC-27 cells assessed as inhibition of cell proliferation measured after 72 hrs by MTT assay; format: functional, cell-based; conditions: HGC-27, 72 h
# [1] = Cytotoxicity against human GES1 cells assessed as inhibition of cell proliferation measured after 72 hrs by MTT assay; format: toxicity, cell-based
Structure (SMILES),IC50 (HepG2),IC50 (A549),IC50 (MCF7),IC50 (MGC-803),IC50 (HGC-27),IC50 at 72 h [1]
N#Cc1ccc(NC(=O)C2CCN(C/C=C/c3ccccc3)CC2)cc1,38.3 µM,40.2 µM,44.5 µM,28.2 µM,–,–
O=C(Nc1cccc2cccnc12)C1CCN(C/C=C/c2ccccc2)CC1,29.5 µM,51.6 µM,34.8 µM,38.1 µM,–,–
CCCCc1ccc(NC(=O)C2CCN(C/C=C/c3ccccc3)CC2)cc1,4.32 µM,5.91 µM,5.87 µM,2.57 µM,–,–
O=c1[nH]cc(F)c(=O)[nH]1 [FLUOROURACIL],6.69 µM,15.1 µM,9.49 µM,12.1 µM,–,–
CC(C)c1ccc(NC(=O)C2CCN(C/C=C/c3ccccc3)CC2)cc1,12.2 µM,9.43 µM,9.1 µM,5.2 µM,–,–
O=C(NCc1ccccc1)C1CCN(C/C=C/c2ccccc2)CC1,> 100 µM,> 100 µM,> 100 µM,> 100 µM,–,–
O=C(Nc1cccc(Br)c1)C1CCN(C/C=C/c2ccccc2)CC1,19.2 µM,16.4 µM,11.5 µM,9.11 µM,–,–
O=C(Nc1cccc(Cl)c1)C1CCN(C/C=C/c2ccccc2)CC1,20 µM,19.1 µM,16.1 µM,11.3 µM,–,–
O=C(Nc1ccccc1)C1CCN(C/C=C/c2ccccc2)CC1,90.9 µM,69.7 µM,60.2 µM,57.9 µM,–,–
COc1ccccc1NC(=O)C1CCN(C/C=C/c2ccccc2)CC1,91.2 µM,> 100 µM,> 100 µM,71.2 µM,–,–
CCCc1ccc(NC(=O)C2CCN(C/C=C/c3ccccc3)CC2)cc1,9.41 µM,9.47 µM,9.03 µM,5.21 µM,–,–
"NS(=O)(=O)OC[C@@H]1CC(n2ccc3c(N[C@H]4CCc5ccccc54)ncnc32)C[C@@H]1O (single isomer, unassigned) [PEVONEDISTAT]",8.15 µM,47.8 µM,> 100 µM,5.16 µM,1.25 µM,13.5 µM
O=C(Nc1nc2ccc(Br)cc2s1)C1CCN(C/C=C/c2ccccc2)CC1,32.1 µM,17.7 µM,14.6 µM,4.38 µM,–,–
O=C(Nc1cccc(C(F)(F)F)c1)C1CCN(C/C=C/c2ccccc2)CC1,11.4 µM,15.6 µM,16.1 µM,9.59 µM,–,–
O=C(Nc1ccccn1)C1CCN(C/C=C/c2ccccc2)CC1,51.1 µM,89.3 µM,67.2 µM,45.2 µM,–,–
CCc1ccc(NC(=O)C2CCN(C/C=C/c3ccccc3)CC2)cc1,23.3 µM,19.6 µM,20 µM,11.6 µM,–,–
COc1ccc(NC(=O)C2CCN(C/C=C/c3ccccc3)CC2)cc1,88.8 µM,83.8 µM,> 100 µM,58.2 µM,–,–
O=C(Nc1ccc(F)c(Br)c1)C1CCN(C/C=C/c2ccccc2)CC1,8.19 µM,11.7 µM,13.5 µM,9.27 µM,–,–
CN1CCN(c2ccc(NC(=O)C3CCN(C/C=C/c4ccccc4)CC3)cc2)CC1,35.2 µM,19.9 µM,44 µM,14 µM,–,–
O=C(Nc1cccc(F)c1)C1CCN(C/C=C/c2ccccc2)CC1,51.1 µM,43.3 µM,33 µM,23.3 µM,–,–
O=C(Nc1nccs1)C1CCN(C/C=C/c2ccccc2)CC1,22.4 µM,34.9 µM,28.6 µM,16.4 µM,–,–
Cc1ccc(NC(=O)C2CCN(C/C=C/c3ccccc3)CC2)cc1,33.9 µM,29.6 µM,30 µM,24.1 µM,–,–
O=C(Nc1cc(-c2cccc(Br)c2)on1)C1CCN(C/C=C/c2ccccc2)CC1,4.42 µM,6.53 µM,4.87 µM,4.61 µM,–,–
COc1cccc(NC(=O)C2CCN(C/C=C/c3ccccc3)CC2)c1,78.6 µM,50.5 µM,42.6 µM,37.2 µM,–,–
